From patent US9743646B2, “Method of establishing isogenic multi-xenograft model and the use thereof” (Crown Bioscience Inc. (Taicang), priority 2014, dated 2017)

Tests used:
Format in all cases: in vivo, Nude mice
[1] = tested on: SW48-KRAS (G13D/+) xenograft (HD 103-002); test: Tumor volume of SW48-KRAS (G13D/+) xenograft in isogenic dual-xenograft mice
Description: (§1) The SW48 series colorectal adenocarcinoma cells were obtained from Horizon Discovery Ltd (see below in Table 1 for Catalogue number details), and maintained in vitro as a monolayer culture in McCoy's 5A medium supplemented with 10% heat inactivated fetal bovine serum, 2 mM L-glutamine, with or without G418, at 37° C. in an atmosphere of 5% CO2 in air. The tumor cells were routinely subcultured every 3-5 days by trypsin-EDTA treatment. Cells growing in an exponential growth phase were harvested and counted for tumor inoculation. HD 103-002 cell line was derived from parental SW48 cell line HD PAR-006 with heterozygous knock-in of KRAS activating mutation-G13D; HD 103-007 cell line was derived from parental SW48 cell line HD PAR-006 with heterozygous knock-in of KRAS activating mutation-G12V.
(§2) Each mouse is grafted subcutaneously at the left and right flank with SW48 tumor cells (1×10^7 cells) in 0.1 ml of PBS for tumor development, among which 15 mouse are grafted with 1×10^7HD PAR-006 cells at their left flank and with 1×10^7 HD 103-002 cells at their right flank, and the other 15 mouse are grafted with 1×10^7 HD PAR-006 cells at their left flank and with 1×10^7 HD103-007 cells at their right flank. Mice with xenografts are then allow sufficient time (in present embodiment, around 5-8 days) to develop solid tumor.
(§3) Isogenic dual-xenograft mice produced in accordance to the methods described in Example 1 were used to evaluate test agents for their efficacy on the disease associated with mutations of gene. More specifically, mice with different KRAS mutations were treated with EGFR inhibitors to address the question of resistant phenotypes elicited by different KRAS mutations. This design allows direct comparison of wild type and mutant isogenic pairs for treatment responses that are associated with the defined genetic variations.
(§4) The major endpoint was to evaluate the tumor growth. Tumor sizes were measured twice weekly in two dimensions using a caliper, and the volume were expressed in mm3 using the formula: V=0.5 a×b^2, where a and b are the long and short diameters of the tumor, respectively.

[2] = tested on: SW48-KRAS (G12V/+) xenograft (HD 103-007); test: Tumor volume of SW48-KRAS (G12V/+) xenograft in isogenic dual-xenograft mice
Description: as §1, §2, §3, §4

[3] = tested on: SW48-parental xenograft (HD PAR-006, KRAS WT); test: Tumor volume of SW48-parental xenograft in isogenic dual-xenograft mice; details: Erlotinib 50 mg/kg p.o. once daily, 14 days, vs saline
Description: as §1, with “mutation-G12V. […]” for “mutation-G12V.”
as §4

[4] = Erlotinib 50 mg/kg p.o. once daily, 14 days
[5] = Erlotinib 50 mg/kg, p.o., Qd x 14, SW48 KRAS(G13D/+), tumor volume
[6] = Erlotinib 50 mg/kg, p.o., Qd x 14, SW48 KRAS(G12V/+), tumor volume

Compound: C#Cc1cccc(Nc2ncnc3cc(OCCOC)c(OCCOC)cc23)c1 [Erlotinib]
- response of SW48 KRAS (G13D/+) compared to the parental line [1, 4]: remains sensitive
- effect on tumor volume of the SW48-KRAS (G13D/+) xenograft (FIG. 1B) ([1]; Erlotinib 50 mg/kg p.o. once daily, 14 days, vs saline): significantly reduced
- T/C on Day 21 [1, 5]: 24%
- TGI on Day 21 [1, 5]: 76%
- response of SW48 KRAS (G12V/+) compared to the parental line [2, 4]: resistant
- reduction on the tumor volume of the SW48-KRAS (G12V/+) xenograft (FIG. 2B) ([2]; Erlotinib 50 mg/kg p.o. once daily, 14 days, compared with parental xenograft): not as significant as on the SW48-KRAS-parental xenograft
- T/C on Day 21 [2, 6]: 86%
- TGI on Day 21 [2, 6]: 14%
- effect on tumor volume of the SW48-parental xenograft (FIG. 2A) ([3]; dual model with SW48-KRAS (G12V/+)): reduced
- effect on tumor volume of the SW48-parental xenograft (FIG. 1A) ([3]; dual model with SW48-KRAS (G13D/+)): significantly reduced
